Values of other authors, collected in patent US20230310447A1, “METHODS OF TREATING AGE-RELATED COGNITIVE DECLINE” (Woolsey Pharmaceuticals, Inc., priority 2020, published 2023).

Tests used:
[1] = 1-hydroxy (M3) metabolite, in vivo; Shibuya 2001
memory in aging rats = conditions: eighteen-month old rats; 0.1875 or 0.3750 mg per day, single daily injection; radial maze

half-life [1] | Molecule | working memory (memory in aging rats)
about 8 hours | O=S(=O)(c1cccc2c(O)nccc12)N1CCCNCC1 [hydroxyfasudil] | 
 | hydroxyfasudil | improvements in working memory
